In patent US11141410B2 (MERCK SHARP & DOHME CORP., priority 2015, dated 2021):

Key:
MRSA COL (MB 5393) = test: In Vivo Murine Systemic Infection Model; parameters: species or system Female Balb/C mice; settings: sc tid; for Bacteria recovered: kidneys 24 h post challenge, neutropenic mice
Procedure: The murine systemic infection model determines the therapeutic efficacy of TarO inhibitor/β-lactam combinations in vivo. Staphylococci bacteria can cause a systemic infection and establish a robust growth in the kidneys of the infected animal. MRSA COL can establish an infection even in the presence of β-lactam antibiotic due MRSA COL resistance to β-lactam antibiotics.
Female Balb/C mice were rendered neutropenic (immune suppressed) with a single 250 mg/kg intraperitoneal (ip) dose of cyclophosphamide on […]. MRSA COL (MB 5393) was grown for 16 hours in trypticase soy broth (TSB) at 37° C. and 0.5 mL of diluted culture (˜1×10^4 cfu) was administered intraperitoneal (IP). The TarO inhibitor and β-lactam antibiotic were administered alone or in combination by subcutaneous route at 2, 5 and 8 hr. post challenge (sc, tid). Twenty four hours post challenge mice were euthanized and the kidneys harvested, weighed, homogenized and plated to measure the total number of bacteria recovered as colony forming unit (CFU) remaining in compound treated groups as compared to vehicle (saline) or β-lactam antibiotic alone groups (statistical analyses was determined by one way ANOVA).

MRSA COL (MB5393) [1] = test: TarO Inhibitor/β-Lactam Synergy Assay (growth, OD600); format: cell-based, Staphylococcus aureus; settings: for MITC95 TarO inhibitor + 4 μg/mL IPM; Bacteria: SA_MB5393: in combination with 4 μg/mL imipenem (IPM); for MITC95 TarO inhibitor + 8 μg/mL DCX; Bacteria: SA_MB5393: in combination with 8 μg/mL dicloxacillin (DCX)
How it was run: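 TarO inhibitors titrated 2-fold from 200 μM (2% DMSO) against MRSA COL, 5×10^5 CFU in CAMHB, with β-lactam fixed at clinical breakpoint (imipenem 4 μg/ml or dicloxacillin 8 μg/ml). Incubated 20 h at 37 °C without shaking; relative growth read as OD600.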

MRSA COL (MB5393) [2] = test: as above; format: cell-based; settings: Staphylococcus aureus, TarO inhibitor alone, >200 μM = 95% growth inhibition not achieved, 20 hours at 37° C., read-out: MITC95 TarO inhibitor alone, Bacteria: SA_MB5393

| SMILES | Fold reduction vs. vehicle alone (MRSA COL (MB 5393); TarO inhibitor alone 50 mg/kg) | Bacteria recovered (MRSA COL (MB 5393); TarO inhibitor alone 50 mg/kg) | MITC95 TarO inhibitor + 4 μg/mL IPM; Bacteria: SA_MB5393 (MRSA COL (MB5393) [1]) | MITC95 TarO inhibitor + 8 μg/mL DCX; Bacteria: SA_MB5393 (MRSA COL (MB5393) [1]) | IC95 (MRSA COL (MB5393) [2]) | Fold reduction vs. vehicle alone (MRSA COL (MB 5393); Imipenem alone 5 mg/kg) | Bacteria recovered (MRSA COL (MB 5393); Imipenem alone 5 mg/kg) | MITC95 concentration of β-lactam antibiotic alone (MRSA COL (MB5393) [1]; β-lactam alone, MRSA COL) |
| --- | --- | --- | --- | --- | --- | --- | --- | --- |
| C[C@H]1[C@@H](c2cccc(C(F)(F)F)c2)OC(=O)N1C(=O)NCc1cncc2ccccc12 [Example 18, (4S,5R)-N-(isoquinolin-4-ylmethyl)-4-methyl-2-oxo-5-[3-(trifluoromethyl)phenyl]-1,3-oxazolidine-3-carboxamide] | −0.9 | 6.6×10^7 cfu/g kidney | 0.23 µM | 1.95 µM | > 200 µM | – | – | – |
| COc1cc(C(F)(F)F)nc([C@@H]2OC(=O)N(C(=O)NCc3cncc4ccccc34)[C@H]2C)n1 [Example 96, (4S,5R)—N-(isoquinolin-4-ylmethyl)-5-(4-methoxy-6-(trifluoromethyl)pyrimidin-2-yl)-4-methyl-2-oxooxazolidine-3-carboxamide] | – | – | 4.17 µM | 25 µM | > 200 µM | – | – | – |
| C[C@H]1[C@@H](c2cc(N3CCC(F)(F)C3)cc(C(F)(F)F)c2)OC(=O)N1C(=O)NCc1cccc2cncnc12 [Example 97, (4S,5R)-5-(3-(3,3-difluoropyrrolidin-1-yl)-5-(trifluoromethyl)phenyl)-4-methyl-2-oxo-N-(quinazolin-8-ylmethyl)oxazolidine-3-carboxamide] | – | – | 0.42 µM | 3.32 µM | > 200 µM | – | – | – |
| C[C@H]1[C@@H](c2cc(N(C)C)cc(C(F)(F)F)c2)OC(=O)N1C(=O)NCc1cncc2ccccc12 [Example 98, (4S,5R)-5-[3-(dimethylamino)-5-(trifluoromethyl)phenyl]-N-(isoquinolin-4-ylmethyl)-4-methyl-2-oxo-1,3-oxazolidine-3-carboxamide] | – | – | 0.01 µM | 0.41 µM | > 200 µM | – | – | – |
| O=C(NCc1cncc2ccccc12)N1C(=O)O[C@H](c2cc(F)cc(C(F)(F)F)c2)[C@@H]1CCO [Example 99, (4S,5R)-5-(3-fluoro-5-(trifluoromethyl)phenyl)-4-(2-hydroxyethyl)-N-(isoquinolin-4-ylmethyl)-2-oxooxazolidine-3-carboxamide] | – | – | 18.75 µM | 100 µM | > 200 µM | – | – | – |
| C[C@H]1[C@@H](c2cc(C(F)(F)F)cc(C(F)(F)F)c2)OC(=O)N1C(=O)/C=C/c1cncc2ccccc12 [Example 100, (4S,5R)-5-(3,5-bis(trifluoromethyl)phenyl)-3-((E)-3-(isoquinolin-4-yl)acryloyl)-4-methyloxazolidin-2-one] | – | – | 1.60 µM | – | > 200 µM | – | – | – |
| O=C(CCc1cncc2ccccc12)N1C(=O)O[C@H](c2cc(C(F)(F)F)cc(C(F)(F)F)c2)C12CC2 [Example 101, (R)-7-(3,5-bis(trifluoromethyl)phenyl)-4-(3-(isoquinolin-4-yl)propanoyl)-6-oxa-4-azaspiro[2.4]heptan-5-one] | – | – | 0.20 µM | – | > 200 µM | – | – | – |
| C[C@@H](O)[C@H]1C(=O)N2C(C(=O)O)=C(SCCN=CN)C[C@H]12 [Imipenem, imipenem, reference compound] | – | – | – | – | – | 4.6 | 1.3 × 10^7 cfu/g kidney | 32 µg/mL |
